Source: patent US4201771A (priority 1979, dated 1980)
Read-outs that look alike come from different tables or passages of the source.

Assays:
Format in all cases: in vivo
Piricularia oryzae [1] = details: for Rice Blast Lesions per 5th Leaf: Table 2, protectant, untreated control 22; for Rice Blast Lesions/5th Leaf Protectant: Table 1, untreated 52
[2] = system: Rice, variety Calusa No. 2; assay: Phytotoxicity / injury on rice in greenhouse bioassay; details: Table 2, rice
Procedure: Host: Rice, variety Calusa No. 2.
Growth Conditions: Rice plants grown to 5 leaf stage in greenhouse on Swiss Farm Potting soil in 7 ounce styrafoam pots. Thinned to 3 seedlings per pot. Day temperature 20°-28° C.; night temperature 15°-20° C. Soluble 20--20--20 fertilizer applied weekly.
Treatment: Test solutions or suspensions of candidate compounds sprayed on both leaf surfaces to run-off with a No. 152 DiVilbiss atomizer at 10 psi. Formulations are prepared by dissolving compounds in methanol-Tween 20 mixture and bringing to volume with deionized water.

[3] = system: Puccinia recondita f. sp. tritici; details: 1000 PPM; untreated 42
Piricularia oryzae [4] = details: 1000 PPM; untreated 69
[5] = system: Puccinia recondita f. sp. tritici; details: untreated 27
Phytophthora infestans = details: untreated 84

CCCCNC(=O)n1c(NC(=O)OC)nc2ccccc21 [Benomyl, [1-[(Butylamino)carbonyl]-1H-benzimidazol-2-yl]carbamic acid methyl ester]
Rice Blast Lesions per 5th Leaf (Piricularia oryzae [1]; 1 PPM): 4 | Rice Blast Lesions per 5th Leaf (Piricularia oryzae [1]; 10 PPM): 4 | Rice Blast Lesions per 5th Leaf (Piricularia oryzae [1]; 100 PPM): 0.1 | Remarks (plant injury) ([2]; 1 PPM): no injury | Remarks (plant injury) ([2]; 10 PPM): no injury | Remarks (plant injury) ([2]; 100 PPM): no injury

CC1=C(C(=O)Nc2ccccc2)SCCO1 [Carboxin, 5,6Dihydro-2-methyl-N-phenyl-1,4-oxathiin-3-carboxamide]
Wheat Leaf Rust Pustules/Leaf Systemic [3]: 4

CCOP(=O)(Sc1ccccc1)Sc1ccccc1 [Hinosan, O-Ethyl 5,5-diphenylphosphorodithioate]
Rice Blast Lesions/5th Leaf Protectant (Piricularia oryzae [1]; 1 PPM): 16 | Rice Blast Lesions/5th Leaf Protectant (Piricularia oryzae [1]; 10 PPM): 8 | Rice Blast Lesions/5th Leaf Protectant (Piricularia oryzae [1]; 100 PPM): < 1 | Rice Blast Lesions/5th Leaf Systemic (Piricularia oryzae [4]): 31

S=C([S-])NCCNC(=S)[S-].[Mn+2] [Maneb, [[1,2-Ethanediylbis[carbamodithioato]]-(2-)]manganese]
Wheat Leaf Rust Pustules/Leaf Protectant ([5]; 1 PPM): 20 | Wheat Leaf Rust Pustules/Leaf Protectant ([5]; 10 PPM): 12 | Wheat Leaf Rust Pustules/Leaf Protectant ([5]; 100 PPM): 0 | Late Blight (Tomato) Phytophthora % Leaf Necrosis Protectant (Phytophthora infestans; 1 PPM): 77% | Late Blight (Tomato) Phytophthora % Leaf Necrosis Protectant (Phytophthora infestans; 10 PPM): 63% | Late Blight (Tomato) Phytophthora % Leaf Necrosis Protectant (Phytophthora infestans; 100 PPM): 11%
